Our source for the IC50 values is US20150284375A1 (AJINOMOTO CO., INC., priority 2012, published 2015).

In the experiment the target is T1, human TRPA1 (Homo sapiens, UniProt O75762).
T1 construct: expressed in transfected cells; host or cells: Human embryonic kidney-derived 293T cells, transiently transfected with the pcDNA3.1/zeo(+) human TRPA1 plasmid
The experiment is described as follows: Measurement of TRPA1 antagonist activity (intracellular calcium increase, FLIPR, allylisothiocyanate stimulation). The format is cell-based. Particulars: allylisothiocyanate 20 μM stimulation, FLIPR calcium assay; read-out: antagonism hTRPA1. An outline of the steps: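 IC50 derives from a sigmoid fit of inhibition of the 5-min FLIPR fluorescence change evoked by 20 μM allylisothiocyanate, normalized between agonist and buffer responses. Test substance, diluted in HBSS/20 mM HEPES pH 7.2 plus 0.1% BSA, was applied 10 min beforehand at room temperature to Calcium4-loaded 293T cells transiently expressing human TRPA1.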

T1 sequence (O75762 whole entry): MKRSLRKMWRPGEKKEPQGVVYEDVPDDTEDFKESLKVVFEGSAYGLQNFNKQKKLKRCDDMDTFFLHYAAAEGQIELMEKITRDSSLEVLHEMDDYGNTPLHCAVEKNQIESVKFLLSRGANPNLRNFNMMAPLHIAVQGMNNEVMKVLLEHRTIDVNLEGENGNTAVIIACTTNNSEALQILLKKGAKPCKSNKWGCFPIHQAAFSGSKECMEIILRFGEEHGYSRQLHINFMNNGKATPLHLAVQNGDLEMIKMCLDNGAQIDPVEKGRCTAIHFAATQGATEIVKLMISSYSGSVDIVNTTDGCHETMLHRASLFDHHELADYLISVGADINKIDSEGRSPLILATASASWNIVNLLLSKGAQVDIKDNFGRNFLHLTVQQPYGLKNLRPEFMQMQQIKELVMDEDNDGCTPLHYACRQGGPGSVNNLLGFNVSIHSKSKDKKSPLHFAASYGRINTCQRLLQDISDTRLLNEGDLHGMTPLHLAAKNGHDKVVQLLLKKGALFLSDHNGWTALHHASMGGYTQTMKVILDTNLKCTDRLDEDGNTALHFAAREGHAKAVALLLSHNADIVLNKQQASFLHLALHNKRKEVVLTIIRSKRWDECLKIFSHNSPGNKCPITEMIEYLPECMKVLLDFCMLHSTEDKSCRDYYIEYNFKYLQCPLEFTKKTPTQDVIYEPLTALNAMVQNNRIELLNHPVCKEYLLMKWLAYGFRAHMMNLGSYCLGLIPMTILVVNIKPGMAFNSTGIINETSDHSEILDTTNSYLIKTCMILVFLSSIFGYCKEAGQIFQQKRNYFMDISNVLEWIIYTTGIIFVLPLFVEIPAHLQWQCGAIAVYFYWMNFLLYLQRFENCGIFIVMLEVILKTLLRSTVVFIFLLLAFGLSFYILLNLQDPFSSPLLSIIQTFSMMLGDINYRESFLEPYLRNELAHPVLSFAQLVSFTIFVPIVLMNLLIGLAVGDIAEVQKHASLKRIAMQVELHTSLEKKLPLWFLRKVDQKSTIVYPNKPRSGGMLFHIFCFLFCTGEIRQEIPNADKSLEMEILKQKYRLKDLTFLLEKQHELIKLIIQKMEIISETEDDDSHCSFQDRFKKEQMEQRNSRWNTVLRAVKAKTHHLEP

As to `O=C(NCc1cccc(OCc2ccc(C(F)(F)F)cc2)c1)[C@@H]1CCCN1S(=O)(=O)c1cc2ccccc2s1` [Example 208, (2S)-1-(benzothiophen-2-ylsulfonyl)-N-[[3-[[4-(trifluoromethyl)phenyl]methoxy]phenyl]methyl]pyrrolidine-2-carboxamide], the IC50 amounted to 87 nM.

Take `O=C(NCc1cccc(OCc2ccc(C(F)(F)F)cc2)c1)[C@@H]1CCCN1S(=O)(=O)c1ccc2ncsc2c1` [Example 209, (2S)-1-(1,3-benzothiazol-6-ylsulfonyl)-N-[[3-[[4-(trifluoromethyl)phenyl]methoxy]phenyl]methyl]pyrrolidine-2-carboxamide]: the IC50 is 2900 nM.

Take `O=C(NCc1cccc(OCc2ccc(C(F)(F)F)cc2)c1)[C@@H]1CCCN1S(=O)(=O)c1ccc2nsnc2c1` [Example 210, (2S)-1-(2,1,3-benzothiadiazol-5-ylsulfonyl)-N-[[3-[[4-(trifluoromethyl)phenyl]methoxy]phenyl]methyl]pyrrolidine-2-carboxamide]: the IC50 turned out to be 150 nM.

On to `O=C(NCc1cccc(OCc2ccc(C(F)(F)F)cc2)c1)[C@@H]1CCCN1S(=O)(=O)c1cccc2nsnc12` [Example 211, (2S)-1-(2,1,3-benzothiadiazol-4-ylsulfonyl)-N-[[3-[[4-(trifluoromethyl)phenyl]methoxy]phenyl]methyl]pyrrolidine-2-carboxamide], for which the IC50 amounted to 5500 nM.

As to `O=C(NCc1cccc(OCc2ccc(C(F)(F)F)cc2)c1)[C@@H]1CCCN1S(=O)(=O)c1cccc2nonc12` [Example 212, (2S)-1-(2,1,3-benzoxadiazol-4-ylsulfonyl)-N-[[3-[[4-(trifluoromethyl)phenyl]methoxy]phenyl]methyl]pyrrolidine-2-carboxamide], the IC50 worked out at 6200 nM.

On to `O=C(NCc1cccc(OCc2ccc(C(F)(F)F)cc2)c1)[C@@H]1CC=CCN1S(=O)(=O)c1ccc(F)cc1` [Example 213, (2S)-1-(4-fluorophenyl)sulfonyl-N-[[3-[[4-(trifluoromethyl)phenyl]methoxy]phenyl]methyl]-3,6-dihydro-2H-pyridine-2-carboxamide], for which the IC50 worked out at 350 nM.

For the compound `O=C(NCc1cccc(OCc2ccc(C(F)(F)F)cc2)c1)[C@@H]1[C@H]2CC[C@H](C2)N1S(=O)(=O)c1ccc(F)cc1` [Example 214, (1S,2S,4R)-3-(4-fluorophenyl)sulfonyl-N-[[3-[[4-(trifluoromethyl)phenyl]methoxy]phenyl]methyl]-3-azabicyclo[2.2.1] heptane-2-carboxamide], the IC50 amounted to 120 nM.

Consider `O=C(NCc1cccc(OCc2ccc(C(F)(F)F)cc2)c1)[C@@H]1[C@H]2CC[C@H](C2)N1S(=O)(=O)c1ccsc1` [Example 215, (1S,2S,4R)-3-(3-thienylsulfonyl)-N-[[3-[[4-(trifluoromethyl)phenyl]methoxy]phenyl]methyl]-3-azabicyclo[2.2.1]heptane-2-carboxamide], for which the IC50 was 110 nM.

In the case of `O=C(NCc1cccc(OCc2ccc(C(F)(F)F)cc2)c1)[C@@H]1CCCN1S(=O)(=O)c1ccncc1` [Example 216, (2S)-1-(4-pyridylsulfonyl)-N-[[3-[[4-(trifluoromethyl)phenyl]methoxy]phenyl]methyl]pyrrolidine-2-carboxamide], the IC50 worked out at 60 nM.

On to `O=C(NCc1cccc(OCc2ccc(C(F)(F)F)cc2)c1)[C@@H]1CCCN1S(=O)(=O)c1cncs1` [Example 217, (2S)-1-thiazol-5-ylsulfonyl-N-[[3-[[4-(trifluoromethyl)phenyl]methoxy]phenyl]methyl]pyrrolidine-2-carboxamide], for which the IC50 is 940 nM.

As for `O=C(NCc1cccc(OCc2ccc(C(F)(F)F)cc2)c1)[C@@H]1CCCN1S(=O)(=O)c1cscn1` [Example 218, (2S)-1-thiazol-4-ylsulfonyl-N-[[3-[[4-(trifluoromethyl)phenyl]methoxy]phenyl]methyl]pyrrolidine-2-carboxamide], the IC50 was determined as 830 nM.

In the case of `O=C(NCc1cccc(OCc2ccc(C(F)(F)F)cc2)c1)[C@@H]1CCCN1S(=O)(=O)c1nc2ccccc2s1` [Example 219, (2S)-1-(1,3-benzothiazol-2-ylsulfonyl)-N-[[3-[[4-(trifluoromethyl)phenyl]methoxy]phenyl]methyl]pyrrolidine-2-carboxamide], the IC50 was found to be 120 nM.

Regarding `O=C(NCc1cccc(OCc2ccc(C(F)(F)F)cc2)c1)[C@@H]1CCCN1S(=O)(=O)n1ccnc1` [Example 220, (2S)-1-imidazol-1-ylsulfonyl-N-[[3-[[4-(trifluoromethyl)phenyl]methoxy]phenyl]methyl]pyrrolidine-2-carboxamide], the IC50 was found to be 190 nM.
